Results: patent publication US5279939A, “Protein protease inhibitors from streptomyces” (SmithKline Beecham Corporation, priority 1992, dated 1994)

System: trypsin
Experiment: chromogenic trypsin inhibition assay using KABI S2288 substrate
Assay type: biochemical
Details: 25 ng trypsin, 410 nm
Procedure: Trypsin inhibitory activity was determined in a chromogenic assay using KABI S2288 as substrate (HO ILE PRO ARG p-nitroanilide.) Scisson of the ARG-p-nitroanilide bond releases p-nitroaniline which absorbs at 410 nm; thus, the extent of cleavage is measured by the increase in absorbance at 410 nm. This assay was used in qualitative manner to determine the inhibitory activity of LTI and LEP-10. Briefly, serial two fold dilutions of either conditioned medium (CM) or ammonium sulfate concentrates (AS) of conditioned medium were mixed with 25 ng of trypsin and the substrate was added. After 30 min at room temperature, the assay was stopped by addition of acetic acid. The assay was carried out in microtiter plates, which were then read in an ELISA reader. Similar samples of PSN were included as controls. […] The data shown are the absorbances measured following cleavage of the chromogenic substrate by trypsin.

plasminostreptin [PSN]
absorbance following cleavage of the chromogenic substrate by trypsin (ammonium sulfate concentrate (AS), reciprocal dilution 1, 30 min, No Inh. control 0.763 (LTI) / 0.751 (PSN)): 0.018
absorbance following cleavage of the chromogenic substrate by trypsin (ammonium sulfate concentrate (AS), reciprocal dilution 2, 30 min): 0.021
absorbance following cleavage of the chromogenic substrate by trypsin (ammonium sulfate concentrate (AS), reciprocal dilution 4, 30 min): 0.023
absorbance following cleavage of the chromogenic substrate by trypsin (ammonium sulfate concentrate (AS), reciprocal dilution 8, 30 min): 0.024
absorbance following cleavage of the chromogenic substrate by trypsin (ammonium sulfate concentrate (AS), reciprocal dilution 16, 30 min): 0.036
absorbance following cleavage of the chromogenic substrate by trypsin (ammonium sulfate concentrate (AS), reciprocal dilution 32, 30 min): 0.076
absorbance following cleavage of the chromogenic substrate by trypsin (conditioned medium (CM), reciprocal dilution 1, 30 min room temperature, No Inh. control 0.898 (LTI) / 0.772 (PSN)): 0.010
absorbance following cleavage of the chromogenic substrate by trypsin (conditioned medium (CM), reciprocal dilution 2, 30 min): 0.046
absorbance following cleavage of the chromogenic substrate by trypsin (conditioned medium (CM), reciprocal dilution 4, 30 min): 0.046
absorbance following cleavage of the chromogenic substrate by trypsin (conditioned medium (CM), reciprocal dilution 8, 30 min): 0.053
absorbance following cleavage of the chromogenic substrate by trypsin (conditioned medium (CM), reciprocal dilution 16, 30 min): 0.058
absorbance following cleavage of the chromogenic substrate by trypsin (conditioned medium (CM), reciprocal dilution 32, 30 min): 0.273
